EP0462621A2, “Use of particular compounds for manufacture of pharmaceutical formulations for treatment against various parasites, mycoplasmas, other indications and other infections” (Prendergast, Patrick Thomas, priority 1990, dated 1991)

Key:
L donovani [1] = assay: Amastigotes (AM) in cell lines, in-vitro; type: cell-based; settings: Ld., Amastigote; note: key: - no/poor activity,; + fair/moderate activity,; ++ good/excellent activity
Source text: (§1) Amastigotes of Leishmania can be cultivated in a wide range of mammalian cells, some of which may be used in in-vitro screens. These include (1) a Sticker dog sarcoma (fibroblast) cell line, (2) transformed rodent macrophage cell lines, (3) primary isolated mouse peritoneal macrophages (MP mo), and (4) human monocyte-derived macrophages (HM mo). The methods are similar for all models. Amastigote or promastigote infected cells are maintained in a medium containing the drug for 4-7 days, at 37 C for L. donovani and 33-35 C for L. major and L. mexicana. Drug activity is then assessed by counting (I) the number of infected host cells and/or (II) the number of amastigotes/100 host cells.
(§2) In-vitro and in-vivo models were used to test activities of a selection of many compounds. Those activities are summarized in Tables 1-3, showing variation between systems and species. Activities measured in the MP mo and HM mo models have shown the best correlation with results obtained in hamster and mouse models.

L major/L mexicana [2] = assay: Amastigotes (AM) in cell lines, in-vitro; type: cell-based; settings: Lm., Amastigote; note: key: - no/poor activity,; + fair/moderate activity,; ++ good/excellent activity
Source text: as §1, §2

[3] = test system: T.b. brucei, T.b. gambiense and T.b. rhodesiense; assay: Procyclic trypomastigote (TRY) in-vitro screen; type: cell-based; note: key: - no/poor activity,; + fair/moderate activity,; ++ good/excellent activity
Description: (§3) Primary screening for new trypanocides has made extensive use of rodent systems, in which host survival time is a simple indicator of drug activity. In-vitro screens have used a variety of trypomastigote types (see Table 3, below). […] Most early in-vitro screens employed a short test in which bloodstream trypomastigotes were isolated from an infected rodent and maintained for up to 24 h in a simple drug-containing media. Two significant modifications of this technique include maintaining isolated bloodstream trypomastigotes in drug-containing media for 3-4 hours at 37° C in micro-titre plates and their subsequent viability assessed by the uptake of radiolabelled precursors or motility and infectivity to mice.
as §2

T. cruzi [4] = assay: T. cruzi intracellular amastigote (AM) in-vitro screen; type: cell-based
Description: Dividing populations can be cultivated in muscle cells, fibroblasts and macrophages, following infection with trypomastigotes. After the initial infection, there is normally a period of 4-5 days during which the amastigotes divide before transforming, via the epimastigote stage, back to trypomastigotes which escape from the cell. Drug activity is measured during this 4-5 day period. A dividing host cell population, low infection rate, and the presence of trypomastigotes in the overlay can complicate the interpretation of results.
Intracellular amastigote models can use a range of muscle (skeletal and cardiac) and fibroblast (e.g. HeLa, HePa) cell lines, macrophages, and chick embryo cells. […] To overcome the problems of overgrowth of the monolayer and a low percentage of infected cells, often associated with the use of cell lines, irradiated rat L6 myoblasts are used.

L donovani [5] = assay: Leishmania mouse/hamster models, in-vivo; settings: Ld. Note: key: - no/poor activity,; + fair/moderate activity,; ++ good/excellent activity.
Source text: as §2

L major/L mexicana [6] = assay: Leishmania mouse/hamster models, in-vivo; settings: Lm. Note: key: - no/poor activity,; + fair/moderate activity,; ++ good/excellent activity.
Source text: as §2

T. cruzi [7] = assay: T. cruzi mouse model, in-vivo
Source text: as §2

[8] = test system: T.b. brucei, T.b. gambiense and T.b. rhodesiense; assay: Cultivated bloodstream trypomastigote (TRY) in-vitro screen; type: cell-based
Source text: Culture systems developed in the last decade have used mammalian cell feeder layers to support the growth of dividing populations of bloodstream trypomastigotes of T. brucei spp. Some of these systems have been used in chemotherapy studies, including; (1) bovine fibroblast culture - T. brucei models to test some standard and experimental compounds, (2) murine bone marrow culture - T.b. gambiense model to screen inosine analogues and platinum and hypolipidemic compounds, and (3) Microtus embryonic fibroblast culture (MEF) - T.b. rhodesiense model to test standard and experimental drugs. These systems give a good indication of in-vivo activity (see Table 3). They measure activity against dividing cells rather than specific macromolecular synthesis pathways and can be readily established in micro-titre plates. The MEF and bone marrow cell feeder layers can be used to grow a range of strains of T. brucei spp., offering the possibility of examining variations in drug susceptibility and resistance between strains. The presence of a feeder layer, however, limits the opportunities for the automation of these systems.
as §2

[9] = test system: T.b. brucei, T.b. gambiense and T.b. rhodesiense; assay: Isolated bloodstream trypomastigote (TRY) in-vitro screen; type: cell-based
Description: as §3
In-vitro studies on isolated bloodstream trypomastigotes were also used in the rational biochemical approaches towards the chemotherapy of T. brucei infections involving inhibitors of carbohydrate catabolism salicyl hydroxamic acid plus glycerol), of polyamine synthesis (methylgyoxal bis-guanylhydrazone and - DFMO), and of surface coat glycoprotein synthesis (Tunicamycin). In these studies, activity of the compounds are shown in-vitro and in-vivo, whereas the sensitivity of isolated bloodstream trypomastigotes to toxic oxygen radicals generated by naphthoquinones was not shown by the parasites in mice. The activity of the standard anti-trypanosomals-melarsoprol, pentamidine and suramin and tested compounds according to the present invention in in-vitro systems is shown in Table 3.
as §2

L donovani [10] = assay: Amastigote-promastigote (AM-PRO) transformation, in-vitro; type: cell-based; settings: Ld.
L donovani [11] = assay: Leishmania promastigote (PRO) in-vitro screen; type: cell-based; settings: Ld.
Source text: (§4) Following initial infection, the amastigote is the only form present in the mammalian host, surviving and dividing in various macrophage populations. Differences between the promastigote and amastigote in form and habitat are not matched by known biochemical dissimilarities. However, the drug susceptibility of the cultured promastigote, used in many early chemotherapy screens, contrasts markedly with that of the amastigote (see Table 1, below), most importantly to the clinically used pentavalent antimonials - sodium stibogluconate (Pentostam) and meglumine antimoniate (Glucantime).
as §1, §2

L major/L mexicana [12] = assay: Leishmania promastigote (PRO) in-vitro screen; type: cell-based; settings: Lm.
Source text: as §4, §1, §2

L major/L mexicana [13] = assay: Amastigote-promastigote (AM-PRO) transformation, in-vitro; type: cell-based; settings: Lm.
L donovani [14] = assay: Amastigotes (AM) in mouse or human macrophages (mos), in-vitro; type: cell-based; settings: Ld., Amastigote
Source text: as §1, §2

L major/L mexicana [15] = assay: as above; type: cell-based; settings: Lm., Amastigote
Source text: as §1, §2

T. cruzi [16] = assay: T. cruzi epimastigote (EPI) in-vitro screen; type: cell-based
Description: (§5) In-vitro chemotherapy screens have for many years used models involving three stages of the T. cruzi life cycle: • (1) Epimastigote. Dividing populations are easily cultivated in a range of defined and semi-defined media, but are equivalent to a vector stage of the life cycle. • (2) Trypomastigote. These are isolated from a rodent host and can be maintained as a non-dividing population for 24-48 h in media. • (3) Amastigote. Dividing populations can be cultivated in muscle cells, fibroblasts and macrophages, following infection with trypomastigotes. After the initial infection, there is normally a period of 4-5 days during which the amastigotes divide before transforming, via the epimastigote stage, back to trypomastigotes which escape from the cell. Drug activity is measured during this 4-5 day period. A dividing host cell population, low infection rate, and the presence of trypomastigotes in the overlay can complicate the interpretation of results.

T. cruzi [17] = assay: T. cruzi trypomastigote (TRY) in-vitro screen; type: cell-based
Description: as §5

[18] = test system: T.b. brucei, T.b. gambiense and T.b. rhodesiense; assay: African trypanosomiasis mouse model, in-vivo
Description: as §3, §2

| Compound | Activity, AM in cell lines (L donovani [1]) | Activity, AM in cell lines (L major/L mexicana [2]) | activity, procyclic TRY [3] | activity, intracellular AM (T. cruzi [4]; T. cruzi strain Sonya) | activity, intracellular AM (T. cruzi [4]; T. cruzi strain Y) | Activity, mouse/ hamster models (L donovani [5]) | Activity, mouse/ hamster models (L major/L mexicana [6]) | activity, mouse model (T. cruzi [7]; T. cruzi strain Sonya) | activity, mouse model (T. cruzi [7]; T. cruzi strain Y) | activity, cultivated bloodstream TRY [8] | Activity, AM-PRO transform-ation (L donovani [10]) | Activity, PRO (L donovani [11]) | Activity, PRO (L major/L mexicana [12]) | Activity, AM-PRO transform-ation (L major/L mexicana [13]) | Activity, AM in mouse or human mos (L donovani [14]) | Activity, AM in mouse or human mos (L major/L mexicana [15]) | activity, EPI (T. cruzi [16]; T. cruzi strain MR) | activity, EPI (T. cruzi [16]; T. cruzi strain Sonya) | activity, EPI (T. cruzi [16]; T. cruzi strain Y) | activity, TRY (T. cruzi [17]; T. cruzi strain Sonya) | also measured |
| --- | --- | --- | --- | --- | --- | --- | --- | --- | --- | --- | --- | --- | --- | --- | --- | --- | --- | --- | --- | --- | --- |
| OC[C@H]1O[C@@H](n2cnc3c(NCc4ccco4)ncnc32)[C@H](O)[C@@H]1O [Furfuryladenosine] | - | + | + | + (Y,Sonya) | + (Y,Sonya) | + | + | + | ++ | + | + + | + + | + + | + + | + | + + | ++(Y,MR, Sonya) | ++(Y,MR, Sonya) | ++(Y,MR, Sonya) | + (Y,Sonya) | activity, isolated bloodstream TRY [9]: + +; activity, TRY (T. cruzi [17]; T. cruzi strain Y): + (Y,Sonya) |
| OC[C@H]1O[C@@H](n2cnc3c(NCc4ccccc4)ncnc32)[C@H](O)[C@@H]1O [N6-Benzyladenosine, N^6-benzyladenosine] | - | + | + + | + (Y,Sonya) | + (Y,Sonya) | - | - | +(Y)+(Sonya) | +(Y)+(Sonya) | + + | + + | + + | + + | + + | + | + | +(Y,MR, Sonya) | +(Y,MR, Sonya) | +(Y,MR, Sonya) | + (Y,Sonya) | activity, mouse model [18]: + +; activity, TRY (T. cruzi [17]; T. cruzi strain Y): + (Y,Sonya) |
| CC(C)=CCNc1ncnc2c1ncn2[C@@H]1O[C@H](COP(=O)(O)O)[C@@H](O)[C@H]1O [N6-Isopentenyl Adenosine-5'monophosphate, N^6-(Δ^2-isopentenyl) adenosine-5'-monophosphate] | - | + | + + | ++(Y,Sonya) | ++(Y,Sonya) | + | - | + | ++ | + | + | + + | - | + + | + | + + | +(Y,MR, Sonya) | +(Y,MR, Sonya) | +(Y,MR, Sonya) | ++(Y,Sonya) | activity, isolated bloodstream TRY [9]: +; activity, mouse model [18]: +; activity, TRY (T. cruzi [17]; T. cruzi strain Y): ++(Y,Sonya) |
